# From patent US20090123907A1 (priority 2004, published 2009)
# Legend:
# plasma proteins [1] = assay: Protein resistance to vortexing; conditions: for Alk. Phos / LDH / SGOT / SGPT / fIX / fV / fVIII / fibrinogen: plasma, Na citrate 0.4%, lysine citrate 2.0%; for Alkaline phosphatase, % of its initial value / LDH, % of initial value / SGOT, % of initial value / SGPT, % of initial value / factor IX, % of initial value / factor V, % of initial value / factor VIII, % of initial value / fibrinogen, % of initial value: sodium citrate 0.4%, lysine citrate 2%
# Experimental: As the basic anticoagulant experiments were carried out, additional advantages to the new anticoagulation system became apparent. The inventor has long believed that the effects of citrate on proteins, and in particular plasma proteins, goes beyond mere chelation of calcium. As mentioned above, citrate complexes with or otherwise potentiates the precipitation of plasma proteins. […] Soluble protein can be denatured by vigorous mixing and the resulting exposure to the air-water interfaces present in foam. […]. Two ten ml tubes of each plasma were prepared and held at room temperature for thirty minutes. A “pretreatment” sample (Pre) was removed from each tube and set aside. Then the tubes were subjected to vigorous mixing using a vortex (rotary) mixer for 30 min.
# […]. […] […].
# plasma proteins [2] = assay: Protein resistance to room temperature aging; conditions: Na citrate 0.4%, lysine citrate 2%
# Source text: […]. In many cases heat treatments have been used to reduce or eliminated infectious agents from blood products. A problem with such an approach has been heat induced changes in the antigenicity of certain blood components. […]. A continuation of this experiment was set up to check also long term room temperature stability. It is generally believed that resistance to heat is an indicator of room temperature stability. That is the justification for estimating long term stability of products by using “accelerated” stability tests based on storage at an elevated temperature. In the presented experiment it is important to note that different plasma sample were used for the two different anticoagulants because a single sample was not large enough to provide sufficient volume for all of the tests over the life of the extended experiment.
# It was anticipated that protection against damage due to elevated temperature would also provide greater stability at room temperature. It will be appreciated that the need to rapidly freeze plasma to ensure stability and the need to freeze or refrigerate plasma for transport greatly complicates the use of plasma under situations of war or emergency or in developing countries where refrigeration may not be readily available. […] […]. […] […]. Although great effort is taken to ensure sterility of the plasma, any blood product procured by means of venipuncture may become contaminated by skin bacteria. […] […]. Those proteins that do lose activity decrease only slightly as compared to much more dramatic decreases in sodium citrate storage.
# [3] = Level of calcium measured in blood with citrate anticoagulants
# Source text: Lysine citrate is compared to traditional sodium citrate. The various citrate levels are expressed as a weight percentage of citrate so that equivalent levels have the same amount of citrate. The same blood was used throughout so that all of the samples started with the same calcium concentration. Since citrate is an effective chelator of calcium one expects the measured level of calcium to decrease with increasing levels of citrate as more and more of the calcium is “tied up” by the citrate. There is an equilibrium between free measurable calcium and calcium associated with citrate molecules. As the concentration of citrate is increased, calcium levels are lowered as there is a higher and higher probability that a given calcium ion will be interacting with a citrate molecule. […] There are at least two different ways of interpreting phenomenon. It is possible that when lysine molecules interact with citrate molecules, the interaction somehow prevents the chelation of calcium. This would explain the higher calcium measurements because there would effectively be a lower level of citrate present. […] That too would explain the higher measured calcium level but does little to solve the remainder of the conundrum. […] Thus, another advantage of lysine citrate is enhanced patient safety and a simpler plasmapheresis set up since it will not longer be necessary to administer protective doses of calcium.
# [4] = after vortexing, 2% sodium citrate (similar experiment, data not shown)
smiles,measurement,setting,value
"NCCCC[C@H](N)C(=O)O.O=C(O)CC(O)(CC(=O)O)C(=O)O [Lysine Citrate, lysine citrate]",Alk. Phos,plasma proteins [1]; Post 30 min vortexing,22 IU/.L
same,LDH,plasma proteins [1]; Post 30 min vortexing,80 IU/L
same,SGOT,plasma proteins [1]; Post 30 min vortexing,11 IU/L
same,SGPT,plasma proteins [1]; Post 30 min vortexing,24 IU/L
same,fIX,plasma proteins [1]; Post 30 min vortexing,76%
same,fV,plasma proteins [1]; Post 30 min vortexing,55%
same,fVIII,plasma proteins [1]; Post 30 min vortexing,57%
same,fibrinogen,plasma proteins [1]; Post 30 min vortexing,198 mg/dL
same,Alk. Phos,plasma proteins [1]; Pre vortexing,25 IU/.L
same,LDH,plasma proteins [1]; Pre vortexing,99 IU/L
same,SGOT,plasma proteins [1]; Pre vortexing,12 IU/L
same,SGPT,plasma proteins [1]; Pre vortexing,26 IU/L
same,fIX,plasma proteins [1]; Pre vortexing,98%
same,fV,plasma proteins [1]; Pre vortexing,95%
same,fVIII,plasma proteins [1]; Pre vortexing,97%
same,fibrinogen,plasma proteins [1]; Pre vortexing,247 mg/dL
same,"Alkaline phosphatase, % of its initial value",plasma proteins [1]; after vortexing,88%
same,"LDH, % of initial value",plasma proteins [1]; after vortexing,80%
same,"SGOT, % of initial value",plasma proteins [1]; after vortexing,91.6%
same,"SGPT, % of initial value",plasma proteins [1]; after vortexing,92%
same,"factor IX, % of initial value",plasma proteins [1]; after vortexing,77.6%
same,"factor V, % of initial value",plasma proteins [1]; after vortexing,58%
same,"factor VIII, % of initial value",plasma proteins [1]; after vortexing,59%
same,"fibrinogen, % of initial value",plasma proteins [1]; after vortexing,80%
same,Alk. Phos,plasma proteins [2]; 0 days at room temperature,23 IU/.L
same,LDH,plasma proteins [2]; 0 days at room temperature,97 IU/L
same,SGOT,plasma proteins [2]; 0 days at room temperature,10 IU/L
same,SGPT,plasma proteins [2]; 0 days at room temperature,20 IU/L
same,fIX,plasma proteins [2]; 0 days at room temperature,99%
same,fV,plasma proteins [2]; 0 days at room temperature,97%
same,fVIII,plasma proteins [2]; 0 days at room temperature,102%
same,fibrinogen,plasma proteins [2]; 0 days at room temperature,198 mg/dL
same,Alk. Phos,plasma proteins [2]; 7 days at room temperature,23 IU/.L
same,LDH,plasma proteins [2]; 7 days at room temperature,97 IU/L
same,SGOT,plasma proteins [2]; 7 days at room temperature,10 IU/L
same,SGPT,plasma proteins [2]; 7 days at room temperature,20 IU/L
same,fIX,plasma proteins [2]; 7 days at room temperature,100%
same,fV,plasma proteins [2]; 7 days at room temperature,95%
same,fVIII,plasma proteins [2]; 7 days at room temperature,100%
same,fibrinogen,plasma proteins [2]; 7 days at room temperature,198 mg/dL
same,Alk. Phos,plasma proteins [2]; 14 days at room temperature,22 IU/.L
same,LDH,plasma proteins [2]; 14 days at room temperature,98 IU/L
same,SGOT,plasma proteins [2]; 14 days at room temperature,11 IU/L
same,SGPT,plasma proteins [2]; 14 days at room temperature,20 IU/L
same,fIX,plasma proteins [2]; 14 days at room temperature,95%
same,fV,plasma proteins [2]; 14 days at room temperature,92%
same,fVIII,plasma proteins [2]; 14 days at room temperature,97%
same,fibrinogen,plasma proteins [2]; 14 days at room temperature,196 mg/dL
same,Alk. Phos,plasma proteins [2]; 21 days at room temperature,23 IU/.L
same,LDH,plasma proteins [2]; 21 days at room temperature,98 IU/L
same,SGOT,plasma proteins [2]; 21 days at room temperature,10 IU/L
same,SGPT,plasma proteins [2]; 21 days at room temperature,18 IU/L
same,fIX,plasma proteins [2]; 21 days at room temperature,89%
same,fV,plasma proteins [2]; 21 days at room temperature,88%
same,fVIII,plasma proteins [2]; 21 days at room temperature,96%
same,fibrinogen,plasma proteins [2]; 21 days at room temperature,196 mg/dL
same,Level of calcium measured,[3]; Citrate Level 0.01%,9.2 mg/dL
same,Level of calcium measured,[3]; Citrate Level 0.05%,9.1 mg/dL
same,Level of calcium measured,[3]; Citrate Level 0.1%,7.1 mg/dL
same,Level of calcium measured,[3]; Citrate Level 0.25%,4.8 mg/dL
same,Level of calcium measured,[3]; Citrate Level 0.5%,1.6 mg/dL
same,Level of calcium measured,[3]; Citrate Level 1%,0.4 mg/dL
"O=C([O-])CC(O)(CC(=O)[O-])C(=O)[O-].[Na+].[Na+].[Na+] [Na Citrate, sodium citrate, reference compound]",Alk. Phos,plasma proteins [1]; Post 30 min vortexing,15 IU/.L
same,LDH,plasma proteins [1]; Post 30 min vortexing,33 IU/L
same,SGOT,plasma proteins [1]; Post 30 min vortexing,1 IU/L
same,SGPT,plasma proteins [1]; Post 30 min vortexing,1 IU/L
same,fIX,plasma proteins [1]; Post 30 min vortexing,44%
same,fV,plasma proteins [1]; Post 30 min vortexing,21%
same,fVIII,plasma proteins [1]; Post 30 min vortexing,32%
same,fibrinogen,plasma proteins [1]; Post 30 min vortexing,106 mg/dL
same,Alk. Phos,plasma proteins [1]; Pre vortexing,27 IU/.L
same,LDH,plasma proteins [1]; Pre vortexing,100 IU/L
same,SGOT,plasma proteins [1]; Pre vortexing,15 IU/L
same,SGPT,plasma proteins [1]; Pre vortexing,29 IU/L
same,fIX,plasma proteins [1]; Pre vortexing,103%
same,fV,plasma proteins [1]; Pre vortexing,98%
same,fVIII,plasma proteins [1]; Pre vortexing,102%
same,fibrinogen,plasma proteins [1]; Pre vortexing,258 mg/dL
same,"LDH, % of the initial value",plasma proteins [1]; [4],48%
same,"SGOT, % of the initial value",plasma proteins [1]; [4],33%
same,"SGPT, % of the initial value",plasma proteins [1]; [4],32%
same,"alkaline phosphatase, % of the initial value",plasma proteins [1]; [4],80%
same,"factor IX, % of the initial value",plasma proteins [1]; [4],62%
same,"factor V, % of the initial value",plasma proteins [1]; [4],52%
same,"factor Viii, % of the initial value",plasma proteins [1]; [4],57%
same,"fibrinogen, % of the initial value",plasma proteins [1]; [4],69%
same,"Alkaline phosphatase, % of its initial value",plasma proteins [1]; after vortexing,55%
same,"LDH, % of initial value",plasma proteins [1]; after vortexing,33%
same,"SGOT, % of initial value",plasma proteins [1]; after vortexing,6.6%
same,"SGPT, % of initial value",plasma proteins [1]; after vortexing,3.4%
same,"factor IX, % of initial value",plasma proteins [1]; after vortexing,43%
same,"factor V, % of initial value",plasma proteins [1]; after vortexing,21%
same,"factor VIII, % of initial value",plasma proteins [1]; after vortexing,31%
same,"fibrinogen, % of initial value",plasma proteins [1]; after vortexing,4%
same,Alk. Phos,plasma proteins [2]; 0 days at room temperature,30 IU/.L
same,LDH,plasma proteins [2]; 0 days at room temperature,110 IU/L
same,SGOT,plasma proteins [2]; 0 days at room temperature,18 IU/L
same,SGPT,plasma proteins [2]; 0 days at room temperature,32 IU/L
same,fIX,plasma proteins [2]; 0 days at room temperature,104%
same,fV,plasma proteins [2]; 0 days at room temperature,98%
same,fVIII,plasma proteins [2]; 0 days at room temperature,109%
same,fibrinogen,plasma proteins [2]; 0 days at room temperature,206 mg/dL
same,Alk. Phos,plasma proteins [2]; 7 days at room temperature,29 IU/.L
same,LDH,plasma proteins [2]; 7 days at room temperature,111 IU/L
same,SGOT,plasma proteins [2]; 7 days at room temperature,18 IU/L
same,SGPT,plasma proteins [2]; 7 days at room temperature,30 IU/L
same,fIX,plasma proteins [2]; 7 days at room temperature,107%
same,fV,plasma proteins [2]; 7 days at room temperature,102%
same,fVIII,plasma proteins [2]; 7 days at room temperature,100%
same,fibrinogen,plasma proteins [2]; 7 days at room temperature,181 mg/dL
same,Alk. Phos,plasma proteins [2]; 14 days at room temperature,31 IU/.L
same,LDH,plasma proteins [2]; 14 days at room temperature,108 IU/L
same,SGOT,plasma proteins [2]; 14 days at room temperature,15 IU/L
same,SGPT,plasma proteins [2]; 14 days at room temperature,26 IU/L
same,fIX,plasma proteins [2]; 14 days at room temperature,93%
same,fV,plasma proteins [2]; 14 days at room temperature,102%
same,fVIII,plasma proteins [2]; 14 days at room temperature,92%
same,fibrinogen,plasma proteins [2]; 14 days at room temperature,173 mg/dL
same,Alk. Phos,plasma proteins [2]; 21 days at room temperature,28 IU/.L
same,LDH,plasma proteins [2]; 21 days at room temperature,103 IU/L
same,SGOT,plasma proteins [2]; 21 days at room temperature,12 IU/L
same,SGPT,plasma proteins [2]; 21 days at room temperature,20 IU/L
same,fIX,plasma proteins [2]; 21 days at room temperature,56%
same,fV,plasma proteins [2]; 21 days at room temperature,44%
same,fVIII,plasma proteins [2]; 21 days at room temperature,78%
same,fibrinogen,plasma proteins [2]; 21 days at room temperature,167 mg/dL
same,Level of calcium measured,[3]; Citrate Level 0.01%,9.2 mg/dL
same,Level of calcium measured,[3]; Citrate Level 0.05%,8.7 mg/dL
same,Level of calcium measured,[3]; Citrate Level 0.1%,5.3 mg/dL
same,Level of calcium measured,[3]; Citrate Level 0.25%,2.5 mg/dL
same,Level of calcium measured,[3]; Citrate Level 0.5%,0.6 mg/dL
same,Level of calcium measured,[3]; Citrate Level 1%,0 mg/dL
